Laboratory results taken from the NIST ThermoML archive (doi:10.1016/j.fluid.2008.06.019).

Columns and labels:
[1] = 298.15 K; 101.33 kPa; Liquid
[2] = xn = mol fraction of the nth substance listed; conditions: 298.15 K, 101 kPa, Liquid

CC(C)OC(C)C [diisopropyl ether]
Conditions	mass density [kg/m3]
[1]	719.17

CC(C)OC(C)C [diisopropyl ether] + Cc1ccccc1
[2]
Conditions	mass density [kg/m3]
x1 = 0.05	853.94
x1 = 0.0995	845.89
x1 = 0.2004	829.97
x1 = 0.2999	814.46
x1 = 0.4001	799.53
x1 = 0.5003	784.92
x1 = 0.6001	770.99
x1 = 0.7004	757.31
x1 = 0.8003	744.27
x1 = 0.9003	731.28
x1 = 0.9498	725.19

Cc1ccccc1 [toluene] + CCCO
[2]
Conditions	mass density [kg/m3]
x2 = 0.0491	859.7
x2 = 0.0987	857.27
x2 = 0.2003	852.39
x2 = 0.2995	847.48
x2 = 0.4006	842.21
x2 = 0.5001	836.7
x2 = 0.6001	830.71
x2 = 0.7005	824.13
x2 = 0.8001	817.01
x2 = 0.9006	809.12
x2 = 0.9497	805

Cc1ccccc1 [toluene]
Conditions	mass density [kg/m3]
[1]	862.23

CCCO [propan-1-ol]
Conditions	mass density [kg/m3]
[1]	800.61

CC(C)OC(C)C [diisopropyl ether] + CCCO
[2]
Conditions	mass density [kg/m3]
x1 = 0.0508	794.63
x1 = 0.0999	789.64
x1 = 0.2	779.84
x1 = 0.2998	770.67
x1 = 0.3993	762.07
x1 = 0.4999	754.19
x1 = 0.6006	746.71
x1 = 0.7007	739.41
x1 = 0.8001	732.66
x1 = 0.9015	725.59
x1 = 0.9514	722.22
